According to article PMC6777777 (PLoS ONE, 2019):

How the values were obtained:
[1] = target: T1, nicotinic acetylcholine receptor (nAChR) from Torpedo californica (Tetronarce californica, UniProt P02710+P02712+P02714+P02718); test: Two-electrode voltage clamp: inhibition of carbachol-stimulated nAChR current; format: cell-based
T1 construct: flash-frozen Torpedo electric organ was purchased from Aquatic Research Consultants (San Pedro, CA); tissue Aquatic Research Consultants (San Pedro, CA); host or cells: Torpedo electric organ; Membranes were solubilized in cholate, reconstituted in asolectin liposomes and microinjected as protein into Xenopus oocytes
T1 sequence (P02710 25-461): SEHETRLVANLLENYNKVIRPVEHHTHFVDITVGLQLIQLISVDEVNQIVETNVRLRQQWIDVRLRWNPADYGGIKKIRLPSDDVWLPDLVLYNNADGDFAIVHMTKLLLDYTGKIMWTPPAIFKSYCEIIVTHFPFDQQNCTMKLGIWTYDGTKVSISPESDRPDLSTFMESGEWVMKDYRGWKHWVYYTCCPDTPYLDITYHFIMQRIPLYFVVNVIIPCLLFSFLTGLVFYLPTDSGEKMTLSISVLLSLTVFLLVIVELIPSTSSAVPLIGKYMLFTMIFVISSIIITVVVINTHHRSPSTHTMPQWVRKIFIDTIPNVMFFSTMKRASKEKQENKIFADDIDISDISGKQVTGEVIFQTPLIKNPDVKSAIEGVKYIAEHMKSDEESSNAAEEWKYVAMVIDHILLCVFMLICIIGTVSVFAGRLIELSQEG
T1 sequence (P02712 25-493): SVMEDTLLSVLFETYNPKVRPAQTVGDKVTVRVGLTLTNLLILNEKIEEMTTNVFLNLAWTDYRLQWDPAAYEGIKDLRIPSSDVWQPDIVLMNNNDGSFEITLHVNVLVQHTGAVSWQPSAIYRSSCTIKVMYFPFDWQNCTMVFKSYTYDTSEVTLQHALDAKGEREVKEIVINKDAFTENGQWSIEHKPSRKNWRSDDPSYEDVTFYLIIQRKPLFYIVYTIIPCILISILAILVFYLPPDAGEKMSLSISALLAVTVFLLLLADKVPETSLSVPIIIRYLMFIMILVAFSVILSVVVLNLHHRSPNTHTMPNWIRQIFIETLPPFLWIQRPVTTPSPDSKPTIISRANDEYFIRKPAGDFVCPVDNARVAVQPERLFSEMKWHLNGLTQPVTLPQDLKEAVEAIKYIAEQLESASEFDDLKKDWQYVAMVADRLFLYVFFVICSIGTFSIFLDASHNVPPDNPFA
T1 sequence (P02714 18-506): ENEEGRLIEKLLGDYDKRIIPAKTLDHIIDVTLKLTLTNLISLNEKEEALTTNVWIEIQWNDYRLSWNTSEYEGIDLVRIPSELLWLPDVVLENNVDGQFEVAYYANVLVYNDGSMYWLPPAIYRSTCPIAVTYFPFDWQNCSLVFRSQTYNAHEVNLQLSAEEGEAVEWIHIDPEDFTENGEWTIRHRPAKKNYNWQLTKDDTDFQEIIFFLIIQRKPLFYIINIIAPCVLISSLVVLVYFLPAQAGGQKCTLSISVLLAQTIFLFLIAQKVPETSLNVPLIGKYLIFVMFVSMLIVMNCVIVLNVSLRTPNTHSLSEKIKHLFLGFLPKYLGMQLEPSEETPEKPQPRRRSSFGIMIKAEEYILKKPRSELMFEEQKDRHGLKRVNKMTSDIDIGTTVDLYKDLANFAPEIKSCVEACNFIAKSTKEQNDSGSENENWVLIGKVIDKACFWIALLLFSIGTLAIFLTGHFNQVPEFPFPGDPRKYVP
T1 sequence (P02718 22-522): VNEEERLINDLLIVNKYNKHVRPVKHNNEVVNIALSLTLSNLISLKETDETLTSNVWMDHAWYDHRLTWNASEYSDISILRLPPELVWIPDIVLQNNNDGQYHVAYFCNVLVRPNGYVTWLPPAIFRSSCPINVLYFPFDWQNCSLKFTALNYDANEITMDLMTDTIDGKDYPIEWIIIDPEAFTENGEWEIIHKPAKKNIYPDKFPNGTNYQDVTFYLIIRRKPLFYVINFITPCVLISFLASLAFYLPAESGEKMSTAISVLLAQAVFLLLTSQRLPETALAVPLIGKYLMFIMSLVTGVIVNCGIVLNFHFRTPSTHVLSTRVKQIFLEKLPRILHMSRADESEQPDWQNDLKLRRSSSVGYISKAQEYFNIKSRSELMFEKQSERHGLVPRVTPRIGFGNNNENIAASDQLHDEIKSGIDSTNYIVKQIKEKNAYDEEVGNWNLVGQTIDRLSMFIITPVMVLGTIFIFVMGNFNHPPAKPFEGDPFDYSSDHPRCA

[2] = Titration curve of T3 (pK values); format: physicochemical
[3] = target: T1, nicotinic acetylcholine receptor (nAChR) from Torpedo californica; test: Two-electrode voltage clamp of oocytes injected with Torpedo nAChRs: inhibition of acetylcholine-stimulated current; format: cell-based; details: seen at ≥ 100 μM inhibitor, 30 μM acetylcholine
Description: (§1) Sixteen hours after injection, the oocytes were clamped using a TEVC system. All ligands were dissolved in modified Barth’s solution at the indicated pH and were perfused into the chamber using a gravity-flow system. Thyroid hormones were initially dissolved in 0.1 M NaOH. […] Acetylcholine was applied to the bath surrounding the oocyte using a gravity-flow system at 10–13 mL/min. […] Each ligand perfusion lasted 60–70 seconds; after each perfusion, the bath solution was exchanged with ligand-free buffer until the current response signal had returned to baseline for at least 120 seconds before the next application of ligand(s). Data were recorded using iWorx LabScribe v1.959.

[4] = target: T1, nicotinic acetylcholine receptor (nAChR) from Torpedo californica; test: TEVC desensitization kinetics: decay response of nAChR current, slow component of two-exponential fit; format: cell-based; set-up: unit not given here
Description: as §1
The data were then trimmed to begin with the response as it reached 0.96 of the response peak (to avoid false inflection points by signal noise just after the response’s maximum point), and end 35 seconds post-peak. The data were then fit to a two-degree exponential function (i.e., slow and fast response; y=a×e^−(x/A1)+b×e^−(x/A2) ). […] For each ligand/environmental condition (n = 3, per condition), decay response and amplitude were calculated and averaged.

Compound: CC(=O)[C@H]1CC[C@H]2[C@@H]3CC[C@H]4C[C@H](O)CC[C@]4(C)[C@H]3CC[C@]12C [Allopregnanolone, 3α-hydroxy-5α-pregnan-20-one]
- IC50 [1]: 20 µM

Compound: N[C@@H](Cc1cc(I)c(Oc2ccc(O)c(I)c2)c(I)c1)C(=O)O [T3, L-3,3’,5-triiodothyronine]
- pK3, hydroxy group [2]: 12.25

Compound: pregnenolone sulfate [PS]
- apparent maximal effect: reduction of the nAChR control response [3]: 81 ± 4%
- Decay Response Mean ([4]; dose 0.1 μM, pH 6, 30 μM acetylcholine): 17.0
- Decay Response Mean ([4]; dose 0.1 μM, pH 6.5, 30 μM acetylcholine): 26.2
- Decay Response Mean ([4]; dose 0.1 μM, pH 7, 30 μM acetylcholine): 32.7
- Decay Response Mean ([4]; dose 0.1 μM, pH 7.5, 30 μM acetylcholine): 32.3
- Decay Response Mean ([4]; dose 0.1 μM, pH 8, 30 μM acetylcholine): 20.8
- Decay Response Mean ([4]; dose 0.1 μM, pH 8.5, 30 μM acetylcholine): 7.9
- Decay Response Mean ([4]; dose 0.1 μM, pH 9, 30 μM acetylcholine): 31.9
- Decay Response Mean ([4]; dose 1 μM, pH 6, 30 μM acetylcholine): 8.1
- Decay Response Mean ([4]; dose 1 μM, pH 6.5, 30 μM acetylcholine): 24.9
- Decay Response Mean ([4]; dose 1 μM, pH 7, 30 μM acetylcholine): 13.0
- Decay Response Mean ([4]; dose 1 μM, pH 7.5, 30 μM acetylcholine): 11.9
- Decay Response Mean ([4]; dose 1 μM, pH 8, 30 μM acetylcholine): 9.4
- Decay Response Mean ([4]; dose 1 μM, pH 8.5, 30 μM acetylcholine): 1.2
- Decay Response Mean ([4]; dose 1 μM, pH 9, 30 μM acetylcholine): 18.5
- Decay Response Mean ([4]; dose 10 μM, pH 6, 30 μM acetylcholine): 10.5
- Decay Response Mean ([4]; dose 10 μM, pH 6.5, 30 μM acetylcholine): 11.00
- Decay Response Mean ([4]; dose 10 μM, pH 7, 30 μM acetylcholine): 4.6
- Decay Response Mean ([4]; dose 10 μM, pH 7.5, 30 μM acetylcholine): 4.8
- Decay Response Mean ([4]; dose 10 μM, pH 8, 30 μM acetylcholine): 3.0
- Decay Response Mean ([4]; dose 10 μM, pH 8.5, 30 μM acetylcholine): 3.2
